Results taken from patent US20060166900A1, “Salt of morphine-6-glucuronide” (CeNeS Limited, priority 2002, published 2006).

Tests used:
Type in all cases: physicochemical
[1] = Visual appearance on storage (Example 3)
Method: (§1) Each test material was stored between 2-8*C prior to placing on stability. Each material was sub-divided into 900 mg aliquots, transferred to brown opaque HDPE plastic bottles and flushed with Argon prior to sealing. Sufficient samples were provided for each time point as well as spares for each storage condition. The samples were placed in appropriate incubators previously commissioned at storage conditions 25° C./60% RH, 40° C./75% RH and 60° C.
The samples were stored for analysis according to the following table: […]

[2] = Colour of solution by visible spectrophotometry on storage (Example 3); conditions: 5% w/v solution in water
Method: Colour of solution by UV spectrophotometry.
as §1
Colour by Visible Spectrophotometry
A 5% w/v solution of test material was prepared in water and the absorbance measured at 420 nm in a 1 cm silica cell using a Unicam UV4 Visible/UV spectrophotometer.

[3] = Water content by Karl Fisher analysis on storage (Example 3)
Method: Water content (% w/w) by Karl Fisher analysis
as §1
Water Content by Karl Fisher Analysis
Water content was determined in duplicate on an aliquot of equilibrated material (approximately 100 mg) using a Tritrino 720 KFS Titrator.

[4] = Stability of M6G salts at room temperature over 6 years, HPLC; conditions: for Assay M6G corr.: content calculated as M6G derivative
[5] = Stability indicating HPLC assay and related substances on storage (Example 3)
Method: Assay (% w/w) and related substances determination
as §1
Testing Procedures Test for Identity Content and Impurities
Testing was performed in duplicate (2×25 mg) in accordance with a stability indicating HPLC assay method. The assay results were reported as M6G as is, M6G as the anhydrous, solvent free material and the anhydrous solvent free material corrected for the salt form using the relevant conversion factor.

CN1CC[C@]23c4c5ccc(O)c4O[C@H]2[C@@H](O[C@@H]2O[C@H](C(=O)O)[C@@H](O)[C@H](O)[C@H]2O)C=C[C@H]3[C@H]1C5.Cl [Morphine-6-glucuronide hydrochloride]
Appearance ([1]; 1 month, 25° C./60% RH): White crystalline powder
Appearance ([1]; 1 month, 40° C./75% RH): Slightly yellow crystalline powder
Appearance ([1]; 1 month, 60° C.): Pale yellow crystalline powder
Appearance ([1]; 3 months, 25° C./60% RH, hydrochloride): White crystalline powder
Appearance ([1]; 3 months, 25° C./60% RH, listed as hydrochloride, hydrochloride): white crystalline solids
Appearance ([1]; 3 months, 40° C./75% RH): Yellow crystalline powder
Appearance ([1]; Initial): White crystalline powder
Colour ([2]; 1 month, 25° C./60% RH): 0.147 Abs@420 nm
Colour ([2]; 1 month, 40° C./75% RH): 0.444 Abs@420 nm
Colour ([2]; 1 month, 60° C.): 1.183 Abs@420 nm
Colour ([2]; 3 months, 25° C./60% RH): 0.253 Abs@420 nm
Colour ([2]; 3 months, 40° C./75% RH): 2.107 Abs@420 nm
Colour ([2]; Initial): 0.059 Abs@420 nm
Moisture ([3]; 1 month, 25° C./60% RH): 5.10 % w/w
Moisture ([3]; 1 month, 40° C./75% RH): 6.24 % w/w
Moisture ([3]; 1 month, 60° C.): 4.44 % w/w
Moisture ([3]; 3 months, 25° C./60% RH): 6.06 % w/w
Moisture ([3]; 3 months, 40° C./75% RH): 9.02 % w/w
Moisture ([3]; Initial): 4.31 % w/w
HN-33177 ([4]; 0 years): 0.3%
HN-75083 ([4]; 0 years): <0.1%
Unknown related substances (sum area %) ([4]; 0 years): <0.1 area %
Assay M6G corr. ([4]; 0 years): 88.7%
HN-67002 ([4]; 6 years at ambient temperature): 1.3%
HN-67003 ([4]; 6 years at ambient temperature): 2.1%
Morphine ([4]; 6 years at ambient temperature): 0.2%
Unknown related substances (sum area %) ([4]; 6 years at ambient temperature): 9.2 area %
Assay M6G corr. ([4]; 6 years at ambient temperature): 74.8%
HN-33177 ([4]; 6 years at ambient temperature, hydrochloride): 0.2%
HN-33177 ([4]; 6 years at ambient temperature, listed as M6G.HCl, hydrochloride): remained unchanged
peaks present in the chromatogram that cannot be identified by retention time ([4]; almost 6 years at room temperature): 17
Known Related Substances HN33177 ([5]; 1 month, 25° C./60% RH): 0.63%
Known Related Substances HN67003 ([5]; 1 month, 25° C./60% RH): 0.38%
Known Related Substances HN75076 ([5]; 1 month, 25° C./60% RH): 0.04%
Known Related Substances HN75083 ([5]; 1 month, 25° C./60% RH): 0.03%
M6G Assay, Anhydrous basis ([5]; 1 month, 25° C./60% RH): 92.03 % w/w
M6G Assay, As is basis ([5]; 1 month, 25° C./60% RH): 79.21 % w/w
M6G Assay, Corrected for the salt form ([5]; 1 month, 25° C./60% RH): 99.30 % w/w
Total Known ([5]; 1 month, 25° C./60% RH): 1.08%
Total Related Substances ([5]; 1 month, 25° C./60% RH): 2.41%
Total Unknown ([5]; 1 month, 25° C./60% RH): 1.33%
Known Related Substances HN33177 ([5]; 1 month, 40° C./75% RH): 0.41%
Known Related Substances HN67003 ([5]; 1 month, 40° C./75% RH): 3.01%
Known Related Substances HN75076 ([5]; 1 month, 40° C./75% RH): 0.34%
Known Related Substances HN75083 ([5]; 1 month, 40° C./75% RH): 0.07%
Known Related Substances Morphine ([5]; 1 month, 40° C./75% RH): 0.08%
M6G Assay, Anhydrous basis ([5]; 1 month, 40° C./75% RH): 81.39 % w/w
M6G Assay, As is basis ([5]; 1 month, 40° C./75% RH): 69.13 % w/w
M6G Assay, Corrected for the salt form ([5]; 1 month, 40° C./75% RH): 87.81 % w/w
Total Known ([5]; 1 month, 40° C./75% RH): 3.91%
Total Related Substances ([5]; 1 month, 40° C./75% RH): 15.16%
Total Unknown ([5]; 1 month, 40° C./75% RH): 11.25%
Known Related Substances HN33177 ([5]; 1 month, 60° C.): 0.12%
Known Related Substances HN67003 ([5]; 1 month, 60° C.): 3.55%
Known Related Substances HN75076 ([5]; 1 month, 60° C.): 0.55%
Known Related Substances HN75083 ([5]; 1 month, 60° C.): 0.03%
Known Related Substances Morphine ([5]; 1 month, 60° C.): 0.46%
M6G Assay, Anhydrous basis ([5]; 1 month, 60° C.): 75.78 % w/w
M6G Assay, As is basis ([5]; 1 month, 60° C.): 65.73 % w/w
M6G Assay, Corrected for the salt form ([5]; 1 month, 60° C.): 81.76 % w/w
Total Known ([5]; 1 month, 60° C.): 4.71%
Total Related Substances ([5]; 1 month, 60° C.): 20.94%
Total Unknown ([5]; 1 month, 60° C.): 16.23%
Known Related Substances HN33177 ([5]; 3 months, 25° C./60% RH): 0.50%
Known Related Substances HN67003 ([5]; 3 months, 25° C./60% RH): 1.31%
Known Related Substances HN75083 ([5]; 3 months, 25° C./60% RH): 0.03%
Known Related Substances Morphine ([5]; 3 months, 25° C./60% RH): 0.21%
M6G Assay, Anhydrous basis ([5]; 3 months, 25° C./60% RH): 87.71 % w/w
M6G Assay, As is basis ([5]; 3 months, 25° C./60% RH): 75.48 % w/w
M6G Assay, Corrected for the salt form ([5]; 3 months, 25° C./60% RH): 94.64 % w/w
Total Known ([5]; 3 months, 25° C./60% RH): 2.05%
Total Related Substances ([5]; 3 months, 25° C./60% RH): 9.52%
Total Unknown ([5]; 3 months, 25° C./60% RH): 7.47%
decrease in assay compared to initial ([5]; 3 months, 25° C./60% RH): around 6%
Known Related Substances HN33177 ([5]; 3 months, 40° C./75% RH): 0.07%
Known Related Substances HN67003 ([5]; 3 months, 40° C./75% RH): 3.71%
Known Related Substances HN75076 ([5]; 3 months, 40° C./75% RH): 1.67%
Known Related Substances HN75083 ([5]; 3 months, 40° C./75% RH): 0.01%
Known Related Substances Morphine ([5]; 3 months, 40° C./75% RH): 1.55%
M6G Assay, Anhydrous basis ([5]; 3 months, 40° C./75% RH): 61.41 % w/w
M6G Assay, As is basis ([5]; 3 months, 40° C./75% RH): 51.00 % w/w
M6G Assay, Corrected for the salt form ([5]; 3 months, 40° C./75% RH): 66.26 % w/w
Total Known ([5]; 3 months, 40° C./75% RH): 7.01%
Total Unknown ([5]; 3 months, 40° C./75% RH): 51.57%
drop in assay compared to the initial values ([5]; 3 months, 40° C./75% RH): approx 34%
Total Related Substances ([5]; 3 months, 40° C./75% RH, hydrochloride): 58.58%
Total Related Substances ([5]; 3 months, 40° C./75% RH, listed as hydrochloride, hydrochloride): around 54.5%
stability assessment ([5]; 40° C./75% RH over 3 months (base also 60° C. over 1 month)): least stable
Known Related Substances HN33177 ([5]; Initial): 0.63%
Known Related Substances HN67003 ([5]; Initial): 0.07%
Known Related Substances HN75076 ([5]; Initial): 0.01%
Known Related Substances HN75083 ([5]; Initial): 0.06%
M6G Assay, Anhydrous basis ([5]; Initial): 93.28 % w/w
M6G Assay, As is basis ([5]; Initial): 81.63 % w/w
M6G Assay, Corrected for the salt form ([5]; Initial): 100.65 % w/w
Total Known ([5]; Initial): 0.77%
Total Related Substances ([5]; Initial): 1.24%
Total Unknown ([5]; Initial): 0.47%
overall stability comparison ([5]; overall review of Example 3 data): least stable
